Experimental data reported in patent publication US20170190671A1, “BIS(ARYL)CATECHOL DERIVATIVES AS HERBICIDES” (E I DU PONT DE NEMOURS AND COMPANY, priority 2014, published 2017).

Legend:
Assay type in all cases: in vivo
[1] = test system: large (Lg) crabgrass (Digitaria sanguinalis); assay: Test E preemergence; conditions: scale 0 to 100
Outline: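 Visual ratings from 0 = no effect to 100 = complete control, scored against untreated controls after 14 to 21 days in the greenhouse. Compounds, in a non-phytotoxic solvent mix with surfactant, went onto silt loam soil right after sowing (preemergence) or onto 2–18 cm plants at the 1- to 4-leaf stage (postemergence).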

[2] = test system: giant foxtail (Setaria faberii); assay: Test C preemergence; conditions: Setaria faberi, pre-emergence, 336 h, scale 0 to 100, read-out: Plant response rating, Foxtail, Giant
Outline: (§1)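 After preemergence treatment of seeds in loam-sand soil or foliar treatment at the 1- to 4-leaf stage of plants in peat/vermiculite medium, pots were kept 13-15 days in the greenhouse. Each was then scored visually, 0 meaning no effect and 100 complete control.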

[3] = test system: Italian ryegrass (Lolium multiflorum); assay: Test C preemergence; conditions: Lolium multiflorum, pre-emergence, 336 h, scale 0 to 100, read-out: Plant response rating, Ryegrass, Italian
Outline: as §1

[4] = test system: velvetleaf (Abutilon theophrasti); assay: Test C preemergence; conditions: Abutilon theophrasti, pre-emergence, scale 0 to 100, read-out: Plant response rating, Velvetleaf
Outline: as §1

[5] = test system: johnsongrass (Sorghum halepense); assay: Test C preemergence; conditions: Sorghum halepense, pre-emergence, 336 h, scale 0 to 100, read-out: Plant response rating, Johnsongrass
Outline: as §1

[6] = test system: lambsquarters (Chenopodium album); assay: Test C preemergence; conditions: Chenopodium album, pre-emergence, 336 h, scale 0 to 100, read-out: Plant response rating, Lambsquarters
Outline: as §1

corn (Zea mays) = assay: Test C preemergence; conditions: Zea mays, pre-emergence, 336 h, scale 0 to 100
Outline: as §1

[7] = test system: pigweed (Amaranthus retroflexus); assay: Test C preemergence; conditions: Amaranthus retroflexus, pre-emergence, 336 h, scale 0 to 100, read-out: Plant response rating, Pigweed
Outline: as §1

[8] = test system: winter wheat (Triticum aestivum); assay: Test C preemergence; conditions: Triticum aestivum, pre-emergence, 336 h, scale 0 to 100, read-out: Plant response rating, Wheat
Outline: as §1

soybean (Glycine max) = assay: Test C preemergence; conditions: Glycine max, pre-emergence, scale 0 to 100, read-out: Plant response rating, Soybean
Outline: as §1

[9] = test system: large (Lg) crabgrass (Digitaria sanguinalis); assay: Test C preemergence; conditions: Digitaria sanguinalis, pre-emergence, 336 h, scale 0 to 100, read-out: Plant response rating, Crabgrass, Large
Outline: as §1

[10] = test system: yellow nutsedge (Cyperus esculentus); assay: Test C preemergence; conditions: Cyperus, pre-emergence, 336 h, scale 0 to 100, read-out: Plant response rating, Nutsedge, Yellow
Outline: as §1

[11] = test system: blackgrass (Alopecurus myosuroides); assay: Test C preemergence; conditions: Alopecurus myosuroides, pre-emergence, 336 h, scale 0 to 100, read-out: Plant response rating, Blackgrass
Outline: as §1

[12] = test system: ragweed (common ragweed, Ambrosia elatior); assay: Test C preemergence; conditions: Ambrosia artemisiifolia, pre-emergence, 336 h, scale 0 to 100, read-out: Plant response rating, Ragweed
Outline: as §1

[13] = test system: barnyardgrass (Echinochloa crus-galli); assay: Test C preemergence; conditions: Echinochloa crus-galli, pre-emergence, read-out: Plant response rating, Barnyardgrass
Outline: as §1

Fc1cccc(Oc2ncc(Cl)cn2)c1Oc1ncc(C(F)(F)F)cn1 [Compound 43, 5-chloro-2-[5-fluoro-6-[[5-(trifluoromethyl)-2-pyrimidinyl]oxy]phenoxy]pyrimidine]
Plant response rating, Crabgrass, Large ([1]; 31 g ai/ha): 98
Plant response rating, Crabgrass, Large ([1]; 125 g ai/ha): 100
pest or weed control at 31 g/ha ([2]; 31 g ai/ha, preemergence): 100%
pest or weed control at 62 g/ha ([2]; 62 g ai/ha, preemergence): 100%
pest or weed control at 125 g/ha ([2]; 125 g ai/ha, preemergence): 100%
pest or weed control at 16 g/ha ([2]; Preemergence, 16 g ai/ha): 95%
pest or weed control at 31 g/ha ([3]; 31 g ai/ha, preemergence): 50%
pest or weed control at 62 g/ha ([3]; 62 g ai/ha, preemergence): 85%
pest or weed control at 125 g/ha ([3]; 125 g ai/ha, preemergence): 95%
pest or weed control at 16 g/ha ([3]; Preemergence, 16 g ai/ha): 5%
pest or weed control at 31 g/ha ([4]; 31 g ai/ha, preemergence): 100%
pest or weed control at 62 g/ha ([4]; 62 g ai/ha, preemergence): 100%
pest or weed control at 125 g/ha ([4]; 125 g ai/ha, preemergence): 100%
pest or weed control at 16 g/ha ([4]; Preemergence, 16 g ai/ha): 100%
pest or weed control at 31 g/ha ([5]; 31 g ai/ha, preemergence): 75%
pest or weed control at 62 g/ha ([5]; 62 g ai/ha, preemergence): 100%
pest or weed control at 125 g/ha ([5]; 125 g ai/ha, preemergence): 100%
pest or weed control at 16 g/ha ([5]; Preemergence, 16 g ai/ha): 20%
pest or weed control at 31 g/ha ([6]; 31 g ai/ha, preemergence): 100%
pest or weed control at 62 g/ha ([6]; 62 g ai/ha, preemergence): 100%
pest or weed control at 125 g/ha ([6]; 125 g ai/ha, preemergence): 100%
pest or weed control at 16 g/ha ([6]; Preemergence, 16 g ai/ha): 100%
Corn plant response rating (crop injury, 0 = no effect, 100 = complete kill) at 31 g/ha (corn (Zea mays); 31 g ai/ha, preemergence): 20%
Corn plant response rating (crop injury, 0 = no effect, 100 = complete kill) at 62 g/ha (corn (Zea mays); 62 g ai/ha, preemergence): 65%
Corn plant response rating (crop injury, 0 = no effect, 100 = complete kill) at 125 g/ha (corn (Zea mays); 125 g ai/ha, preemergence): 90%
Corn plant response rating (crop injury, 0 = no effect, 100 = complete kill) at 16 g/ha (corn (Zea mays); Preemergence, 16 g ai/ha): 20%
pest or weed control at 31 g/ha ([7]; 31 g ai/ha, preemergence): 100%
pest or weed control at 62 g/ha ([7]; 62 g ai/ha, preemergence): 100%
pest or weed control at 125 g/ha ([7]; 125 g ai/ha, preemergence): 100%
pest or weed control at 16 g/ha ([7]; Preemergence, 16 g ai/ha): 100%
plant injury at 31 g/ha ([8]; 31 g ai/ha, preemergence): 25%
plant injury at 62 g/ha ([8]; 62 g ai/ha, preemergence): 40%
plant injury at 125 g/ha ([8]; 125 g ai/ha, preemergence): 90%
plant injury at 16 g/ha ([8]; Preemergence, 16 g ai/ha): 5%
plant injury at 31 g/ha (soybean (Glycine max); 31 g ai/ha, preemergence): 45%
plant injury at 62 g/ha (soybean (Glycine max); 62 g ai/ha, preemergence): 75%
plant injury at 125 g/ha (soybean (Glycine max); 125 g ai/ha, preemergence): 90%
plant injury at 16 g/ha (soybean (Glycine max); Preemergence, 16 g ai/ha): 30%
pest or weed control at 31 g/ha ([9]; 31 g ai/ha, preemergence): 100%
pest or weed control at 62 g/ha ([9]; 62 g ai/ha, preemergence): 100%
pest or weed control at 125 g/ha ([9]; 125 g ai/ha, preemergence): 100%
pest or weed control at 16 g/ha ([9]; Preemergence, 16 g ai/ha): 100%
pest or weed control at 31 g/ha ([10]; 31 g ai/ha, preemergence): 0%
pest or weed control at 62 g/ha ([10]; 62 g ai/ha, preemergence): 35%
pest or weed control at 125 g/ha ([10]; 125 g ai/ha, preemergence): 60%
pest or weed control at 16 g/ha ([10]; Preemergence, 16 g ai/ha): 100%
pest or weed control at 31 g/ha ([11]; 31 g ai/ha, preemergence): 50%
pest or weed control at 62 g/ha ([11]; 62 g ai/ha, preemergence): 90%
pest or weed control at 125 g/ha ([11]; 125 g ai/ha, preemergence): 95%
pest or weed control at 16 g/ha ([11]; Preemergence, 16 g ai/ha): 40%
pest or weed control at 31 g/ha ([12]; 31 g ai/ha, preemergence): 80%
pest or weed control at 62 g/ha ([12]; 62 g ai/ha, preemergence): 100%
pest or weed control at 125 g/ha ([12]; 125 g ai/ha, preemergence): 90%
pest or weed control at 16 g/ha ([12]; Preemergence, 16 g ai/ha): 35%
pest or weed control at 31 g/ha ([13]; 31 g ai/ha, preemergence, scale 0 to 100): 85%
pest or weed control at 62 g/ha ([13]; 62 g ai/ha, preemergence, scale 0 to 100): 100%
pest or weed control at 125 g/ha ([13]; 125 g ai/ha, preemergence, scale 0 to 100): 100%
pest or weed control at 16 g/ha ([13]; Preemergence, 16 g ai/ha, scale 0 to 100 (0 no effect, 100 complete control)): 60%
